Assay results reported in patent publication US9790228B2, “Heterocyclic kinase inhibitors” (Intellikine LLC, priority 2008, dated 2017).

Assays:
p110α/p85α = p110α/p85α (Homo sapiens (Human), UniProt P42336); assay: PI3K α inhibition assay (TLC lipid kinase or HTRF); type: biochemical
How it was run: (§1)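 IC50 from TLC lipid kinase assay (25 mM HEPES pH 7.4, 10 mM MgCl2, 100 μg/ml phosphatidylinositol, 10 or 100 μM γ-32P-ATP, 5 min RT, phosphorimager) at 10–12 two-fold dilutions, or HTRF (10 μM PIP2, 10 μM ATP, 1 h RT) measuring PIP3 by TR-FRET; 2% DMSO final.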

p110δ/p85α = p110δ/p85α (Homo sapiens (Human), UniProt O00329); assay: PI3K δ inhibition assay (TLC lipid kinase or HTRF); type: biochemical
How it was run: as §1

p110γ = p110γ (Homo sapiens (Human), UniProt P48736); assay: PI3K γ inhibition assay (TLC lipid kinase or HTRF); type: biochemical
How it was run: as §1

p110β/p85α = p110β/p85α (Homo sapiens, UniProt P42338); assay: PI3K β inhibition assay (TLC lipid kinase or HTRF); type: biochemical; conditions: read-out: PI3K β IC50
How it was run: as §1

Balb/c splenic B cells = assay: B cell activation and proliferation assay (Alamar Blue); type: cell-based, mouse; conditions: Mus musculus, B-cell
Procedure: The ability of one or more subject compounds to inhibit B cell activation and proliferation is determined according to standard procedures known in the art. For example, an in vitro cellular proliferation assay is established that measures the metabolic activity of live cells. The assay is performed in a 96 well microtiter plate using Alamar Blue reduction. Balb/c splenic B cells are purified over a Ficoll-Paque™ PLUS gradient followed by magnetic cell separation using a MACS B cell Isolation Kit (Miletenyi). Cells are plated in 90 ul at 50,000 cells/well in B Cell Media (RPMI+10% FBS+Penn/Strep+50 uM bME+5 mM HEPES). A compound disclosed herein is diluted in B Cell Media and added in a 10 ul volume. Plates are incubated for 30 min at 37 C and 5% CO2 (0.2% DMSO final concentration). A 50 ul B cell stimulation cocktail is then added containing either 10 ug/ml LPS or 5 ug/ml F(ab′)2 Donkey anti-mouse IgM plus 2 ng/ml recombinant mouse IL4 in B Cell Media. Plates are incubated for 72 hours at 37° C. and 5% CO2. A volume of 15 uL of Alamar Blue reagent is added to each well and plates are incubated for 5 hours at 37 C and 5% CO2. Alamar Blue fluoresce is read at 560Ex/590Em, and IC50 or EC50 values are calculated using GraphPad Prism 5.

Chain of p110β/p85α (P42338 whole entry, looked up): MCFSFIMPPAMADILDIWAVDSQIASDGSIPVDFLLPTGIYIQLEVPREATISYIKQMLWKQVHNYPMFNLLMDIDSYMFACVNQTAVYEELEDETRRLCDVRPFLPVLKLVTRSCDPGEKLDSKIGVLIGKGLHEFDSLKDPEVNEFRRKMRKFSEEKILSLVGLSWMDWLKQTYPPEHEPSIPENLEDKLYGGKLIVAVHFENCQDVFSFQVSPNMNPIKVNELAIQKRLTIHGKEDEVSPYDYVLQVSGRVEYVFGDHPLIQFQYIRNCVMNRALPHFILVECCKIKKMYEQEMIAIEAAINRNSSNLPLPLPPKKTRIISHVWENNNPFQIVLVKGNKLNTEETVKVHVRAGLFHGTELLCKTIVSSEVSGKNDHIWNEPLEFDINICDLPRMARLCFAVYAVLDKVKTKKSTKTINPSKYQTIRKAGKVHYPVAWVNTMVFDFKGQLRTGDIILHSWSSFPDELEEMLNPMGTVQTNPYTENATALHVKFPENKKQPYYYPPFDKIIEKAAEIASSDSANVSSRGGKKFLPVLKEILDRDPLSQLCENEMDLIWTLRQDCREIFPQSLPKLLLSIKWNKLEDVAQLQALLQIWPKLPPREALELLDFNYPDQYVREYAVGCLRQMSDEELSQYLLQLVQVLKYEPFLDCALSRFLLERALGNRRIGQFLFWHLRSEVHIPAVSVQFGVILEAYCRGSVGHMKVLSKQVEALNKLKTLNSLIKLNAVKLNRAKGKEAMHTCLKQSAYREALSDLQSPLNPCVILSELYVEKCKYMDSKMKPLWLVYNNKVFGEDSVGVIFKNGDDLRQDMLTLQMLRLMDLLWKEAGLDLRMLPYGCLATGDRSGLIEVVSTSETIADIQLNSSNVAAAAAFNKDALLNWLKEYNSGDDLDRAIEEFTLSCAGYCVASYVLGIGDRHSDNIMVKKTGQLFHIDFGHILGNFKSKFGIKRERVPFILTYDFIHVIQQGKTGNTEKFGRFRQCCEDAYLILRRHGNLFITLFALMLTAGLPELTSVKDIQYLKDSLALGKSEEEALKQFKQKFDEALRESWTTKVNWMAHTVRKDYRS
Chain of p110γ (P48736 whole entry): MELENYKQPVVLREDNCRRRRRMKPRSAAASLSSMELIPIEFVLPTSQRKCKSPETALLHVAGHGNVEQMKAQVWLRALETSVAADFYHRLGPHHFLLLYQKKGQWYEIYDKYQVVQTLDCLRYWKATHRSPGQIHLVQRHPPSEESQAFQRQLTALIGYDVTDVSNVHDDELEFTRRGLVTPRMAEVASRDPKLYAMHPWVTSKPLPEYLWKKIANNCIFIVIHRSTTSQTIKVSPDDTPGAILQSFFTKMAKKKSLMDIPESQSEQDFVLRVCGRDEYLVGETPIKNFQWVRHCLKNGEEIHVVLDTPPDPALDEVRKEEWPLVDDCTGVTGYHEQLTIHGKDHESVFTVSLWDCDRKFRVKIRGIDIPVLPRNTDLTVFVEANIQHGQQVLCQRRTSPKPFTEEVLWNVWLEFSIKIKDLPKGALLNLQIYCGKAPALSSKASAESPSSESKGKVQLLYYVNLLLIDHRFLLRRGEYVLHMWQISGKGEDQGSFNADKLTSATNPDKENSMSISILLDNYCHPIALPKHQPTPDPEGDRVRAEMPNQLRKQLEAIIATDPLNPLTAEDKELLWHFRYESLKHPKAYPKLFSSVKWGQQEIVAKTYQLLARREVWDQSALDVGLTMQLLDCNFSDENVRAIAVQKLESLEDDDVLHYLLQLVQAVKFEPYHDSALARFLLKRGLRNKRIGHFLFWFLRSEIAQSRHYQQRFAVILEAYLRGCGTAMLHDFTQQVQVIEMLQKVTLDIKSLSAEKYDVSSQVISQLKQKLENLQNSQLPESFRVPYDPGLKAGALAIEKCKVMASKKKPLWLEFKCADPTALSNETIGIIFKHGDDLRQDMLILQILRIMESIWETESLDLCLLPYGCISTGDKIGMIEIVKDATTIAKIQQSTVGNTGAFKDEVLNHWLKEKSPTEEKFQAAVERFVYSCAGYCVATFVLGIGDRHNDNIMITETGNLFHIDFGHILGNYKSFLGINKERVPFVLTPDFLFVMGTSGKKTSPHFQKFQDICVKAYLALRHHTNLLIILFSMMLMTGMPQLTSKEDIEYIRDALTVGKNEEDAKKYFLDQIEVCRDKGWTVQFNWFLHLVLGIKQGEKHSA
Chain of p110α/p85α (P42336 whole entry): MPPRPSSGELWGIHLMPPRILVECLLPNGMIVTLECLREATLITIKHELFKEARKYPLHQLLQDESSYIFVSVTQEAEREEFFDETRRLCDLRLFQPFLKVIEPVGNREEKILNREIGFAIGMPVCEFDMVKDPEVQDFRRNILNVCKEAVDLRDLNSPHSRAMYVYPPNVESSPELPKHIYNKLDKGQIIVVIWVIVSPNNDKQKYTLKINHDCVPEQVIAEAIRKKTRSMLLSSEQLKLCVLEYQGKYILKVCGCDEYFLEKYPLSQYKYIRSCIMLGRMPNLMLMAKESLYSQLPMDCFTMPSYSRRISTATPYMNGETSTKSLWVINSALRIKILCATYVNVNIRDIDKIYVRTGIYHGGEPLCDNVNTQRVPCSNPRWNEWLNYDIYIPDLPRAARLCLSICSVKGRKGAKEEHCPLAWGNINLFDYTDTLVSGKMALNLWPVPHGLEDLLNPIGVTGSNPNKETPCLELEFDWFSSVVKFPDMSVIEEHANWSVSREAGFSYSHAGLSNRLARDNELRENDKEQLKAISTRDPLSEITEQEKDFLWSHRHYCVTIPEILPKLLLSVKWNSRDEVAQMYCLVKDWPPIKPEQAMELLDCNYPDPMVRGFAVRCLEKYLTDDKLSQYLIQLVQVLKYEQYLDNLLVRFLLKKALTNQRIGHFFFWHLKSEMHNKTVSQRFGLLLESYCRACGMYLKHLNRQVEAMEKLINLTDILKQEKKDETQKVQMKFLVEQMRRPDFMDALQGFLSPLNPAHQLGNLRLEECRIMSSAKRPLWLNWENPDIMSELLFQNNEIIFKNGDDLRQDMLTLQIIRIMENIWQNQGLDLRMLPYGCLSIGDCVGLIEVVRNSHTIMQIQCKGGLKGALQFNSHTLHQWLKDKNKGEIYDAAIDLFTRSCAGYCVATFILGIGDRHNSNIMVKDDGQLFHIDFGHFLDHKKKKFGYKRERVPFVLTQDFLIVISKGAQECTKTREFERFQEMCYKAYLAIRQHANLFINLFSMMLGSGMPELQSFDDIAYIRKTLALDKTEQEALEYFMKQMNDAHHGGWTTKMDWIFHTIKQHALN
Chain of p110α/p85α (P27986 whole entry partner): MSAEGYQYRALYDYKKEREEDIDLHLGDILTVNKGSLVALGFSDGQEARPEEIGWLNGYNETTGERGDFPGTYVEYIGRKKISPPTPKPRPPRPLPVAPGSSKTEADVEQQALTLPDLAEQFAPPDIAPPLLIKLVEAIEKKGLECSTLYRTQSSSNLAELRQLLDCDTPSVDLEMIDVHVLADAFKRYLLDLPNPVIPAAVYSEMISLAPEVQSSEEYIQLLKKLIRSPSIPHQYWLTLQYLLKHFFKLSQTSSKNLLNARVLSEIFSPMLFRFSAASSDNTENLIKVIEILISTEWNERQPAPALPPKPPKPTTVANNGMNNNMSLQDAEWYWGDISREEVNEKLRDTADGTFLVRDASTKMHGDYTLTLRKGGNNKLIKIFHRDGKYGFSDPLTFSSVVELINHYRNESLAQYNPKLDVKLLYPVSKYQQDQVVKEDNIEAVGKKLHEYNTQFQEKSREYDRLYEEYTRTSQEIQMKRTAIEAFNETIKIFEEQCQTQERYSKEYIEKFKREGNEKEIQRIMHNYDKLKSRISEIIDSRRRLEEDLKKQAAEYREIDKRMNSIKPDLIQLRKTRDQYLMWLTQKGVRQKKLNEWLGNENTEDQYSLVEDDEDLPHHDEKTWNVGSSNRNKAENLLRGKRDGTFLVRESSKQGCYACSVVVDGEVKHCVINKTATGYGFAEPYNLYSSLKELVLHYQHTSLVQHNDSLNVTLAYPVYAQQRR
Chain of p110δ/p85α (O00329 whole entry): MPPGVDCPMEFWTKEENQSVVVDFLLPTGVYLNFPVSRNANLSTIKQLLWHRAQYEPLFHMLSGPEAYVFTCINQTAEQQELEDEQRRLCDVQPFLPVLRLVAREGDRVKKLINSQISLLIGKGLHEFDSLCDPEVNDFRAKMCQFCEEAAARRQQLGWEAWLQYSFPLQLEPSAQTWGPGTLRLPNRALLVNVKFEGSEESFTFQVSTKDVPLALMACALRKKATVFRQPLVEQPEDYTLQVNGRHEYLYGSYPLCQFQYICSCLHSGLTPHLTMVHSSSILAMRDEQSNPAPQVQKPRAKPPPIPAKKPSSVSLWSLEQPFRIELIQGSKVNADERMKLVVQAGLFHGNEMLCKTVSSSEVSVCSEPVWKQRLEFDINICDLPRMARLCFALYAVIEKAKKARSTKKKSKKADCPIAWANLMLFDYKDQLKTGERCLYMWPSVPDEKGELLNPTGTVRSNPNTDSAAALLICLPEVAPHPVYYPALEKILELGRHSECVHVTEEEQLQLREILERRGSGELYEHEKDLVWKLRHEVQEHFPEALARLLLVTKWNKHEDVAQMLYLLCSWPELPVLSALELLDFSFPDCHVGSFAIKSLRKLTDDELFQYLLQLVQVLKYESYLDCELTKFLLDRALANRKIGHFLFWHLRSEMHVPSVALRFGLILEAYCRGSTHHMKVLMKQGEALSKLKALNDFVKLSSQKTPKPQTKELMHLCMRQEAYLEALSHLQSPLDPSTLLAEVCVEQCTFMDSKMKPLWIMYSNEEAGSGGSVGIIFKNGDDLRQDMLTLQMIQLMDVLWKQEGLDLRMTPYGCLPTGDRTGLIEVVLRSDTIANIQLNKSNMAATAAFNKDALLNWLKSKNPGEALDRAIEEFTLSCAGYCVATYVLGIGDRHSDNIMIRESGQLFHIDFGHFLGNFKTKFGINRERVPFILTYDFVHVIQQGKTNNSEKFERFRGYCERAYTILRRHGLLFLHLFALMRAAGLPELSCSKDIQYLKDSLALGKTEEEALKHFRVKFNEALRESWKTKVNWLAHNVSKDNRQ
Chain of p110δ/p85α (P27986 whole entry partner): as the sequence (P27986 whole entry partner) above

Compound | IC50 (p110α/p85α) [nM] | IC50 (p110δ/p85α) [nM] | IC50 (p110γ) [nM] | IC50 (p110β/p85α) [nM] | EC50 (Balb/c splenic B cells) [nM]
Cc1ccncc1-c1nc2ccccc2cc1Cn1nc(-c2cc(O)cc(F)c2)c2c(N)ncnc21 [Compound 56] | > 1000 | < 100 | < 100 | > 1000 | < 100
CC(C)N1CCN(c2nc3ccccc3cc2Cn2nc(-c3cc(O)cc(F)c3)c3c(N)ncnc32)CC1 [Compound 69] | > 1000 | < 100 | > 1000 | > 1000 | < 100
CC(C)N(C)c1nc2ccccc2cc1Cn1nc(-c2ccc3nc(N)[nH]c3c2)c2c(N)ncnc21 [Compound 184] | > 1000 | < 100 | < 100 | > 1000 | 100 to 1000
CN1CCN(c2nc3ccccc3cc2Cn2nc(-c3cc(O)cc(F)c3)c3c(N)ncnc32)CC1 [Compound 50] | > 1000 | < 100 | > 1000 | < 100 | < 100
Cc1ccccc1-c1nc2c(C)cccc2cc1Cn1nc(-c2cc(O)cc(F)c2)c2c(N)ncnc21 [Compound 8] | > 1000 | < 100 | < 100 | > 1000 | < 100
Nc1ncc(-c2nn(Cc3cc4ccccc4nc3-c3ccccc3F)c3nccc(N)c23)cn1 [Compound 158] | > 1000 | > 1000 | > 1000 | > 1000 | > 1000
CC(=O)Nc1nc2ccc(-c3nn(Cc4cc5ccccc5nc4-c4ccccc4C)c4ncnc(N)c34)cc2s1 [Compound 84] | > 1000 | < 100 | < 100 | > 1000 | < 100
Nc1ncnc2c1c(I)nn2Cc1cc2ccccc2nc1N1CCCC1 [Compound 1] | > 1000 | < 100 | < 100 | > 1000 | 100 to 1000
Cc1ccccc1-c1nc2ccccc2cc1Cn1nc(-c2ccc3ncnc(N)c3c2)c2c(N)ncnc21 [Compound 134] | > 1000 | < 100 | < 100 | > 1000 | 100 to 1000
Nc1ncnc2c1c(-c1cccc(O)c1)nn2Cc1nc2ccccc2nc1N1CCCC1 [Compound 105] | > 1000 | < 100 | 100 to 1000 | > 1000 | 100 to 1000
CC(=O)Nc1nc2ccc(-c3nn(Cc4cc5ccccc5nc4OC(C)C)c4ncnc(N)c34)cc2s1 [Compound 157] | > 1000 | 100 to 1000 | > 1000 | > 1000 | > 1000
CN1CCN(CCc2nc3ccccc3cc2Cn2nc(-c3cc(O)cc(F)c3)c3c(N)ncnc32)CC1 [Compound 168] | > 1000 | < 100 | > 1000 | 100 to 1000 | < 100
CCC(c1cc2ccccc2nc1N1CCCC1)n1nc(-c2cc(O)cc(F)c2)c2c(N)ncnc21 (centres unmarked) [Compound 40] | > 1000 | < 100 | 100 to 1000 | > 1000 | < 100
Nc1ncnc2c1c(-c1cc(O)cc(F)c1)nn2Cc1nc2ccccc2nc1N1CCCC1 [Compound 104] | > 1000 | < 100 | 100 to 1000 | > 1000 | < 100
CCN1CCN(c2nc3ccccc3cc2Cn2nc(-c3cc(O)cc(F)c3)c3c(N)ncnc32)CC1 [Compound 38] | > 1000 | < 100 | > 1000 | < 100 | < 100
CC(Nc1ncnc2[nH]cnc12)c1cc2ccccc2nc1N1CCN(C)CC1 (centres unmarked) [Compound 82] | > 1000 | < 100 | > 1000 | > 1000 | < 100
Nc1ccc2cc(-c3nn(Cc4cc5ccccc5nc4-c4ccccc4F)c4ncnc(N)c34)ccc2n1 [Compound 136] | > 1000 | < 100 | < 100 | > 1000 | 100 to 1000
Nc1ccnc2c1c(-c1cccc(O)c1)nn2Cc1cc2ccccc2nc1-c1cccnc1 [Compound 77] | > 1000 | < 100 | > 1000 | > 1000 | < 100
CC(=O)Nc1nc2ccc(-c3nn(Cc4cc5ccccc5nc4N4CCN(C)CC4)c4ncnc(N)c34)cc2[nH]1 [Compound 185] | > 1000 | < 100 | > 1000 | 100 to 1000 | < 100

Now from value to molecule, other results behind:

IC50 (p110α/p85α) [nM] | IC50 (p110δ/p85α) [nM] | IC50 (p110γ) [nM] | IC50 (p110β/p85α) [nM] | Compound | EC50 (Balb/c splenic B cells) [nM]
< 100 | < 100 | < 100 | < 100 | Nc1ncc2cc(-c3nn(Cc4cc5ccccc5nc4N4CCOCC4)c4ncnc(N)c34)ccc2n1 [Compound 139] | < 100
< 100 | < 100 | < 100 | 100 to 1000 | Nc1nc2cc(-c3nn(Cc4cc5ccccc5nc4N4CCCC4)c4ncnc(N)c34)ccc2[nH]1 [Compound 153] | 100 to 1000
100 to 1000 | < 100 | < 100 | > 1000 | Nc1nc2cc(-c3nn(Cc4cc5ccccc5nc4-c4ccccc4F)c4ncnc(N)c34)ccc2[nH]1 [Compound 152] | 100 to 1000
< 100 | < 100 | < 100 | 100 to 1000 | Nc1ccc2cc(-c3nn(Cc4cc5ccccc5nc4N4CCOCC4)c4ncnc(N)c34)ccc2n1 [Compound 140] | < 100
100 to 1000 | < 100 | < 100 | 100 to 1000 | CC(C)c1ccccc1-c1nc2ccccc2cc1Cn1nc(-c2cc(O)cc(F)c2)c2c(N)ncnc21 [Compound 17] | < 100
100 to 1000 | < 100 | < 100 | > 1000 | Cc1ccccc1-c1nc2ccccc2cc1Cn1nc(-c2ccc3nc(N)ccc3c2)c2c(N)ncnc21 [Compound 131] | 100 to 1000
100 to 1000 | < 100 | < 100 | > 1000 | Nc1nc2cc(-c3nn(Cc4cc5ccccc5nc4N4CCOCC4)c4ncnc(N)c34)ccc2o1 [Compound 141] | < 100
< 100 | < 100 | < 100 | < 100 | CC(=O)Nc1nc2ccc(-c3nn(Cc4cc5ccccc5nc4N(C)C)c4ncnc(N)c34)cc2s1 [Compound 130] | < 100
100 to 1000 | < 100 | < 100 | > 1000 | CC(=O)Nc1nc2ccc(-c3nn(Cc4cc5ccccc5nc4-n4cnc(C)c4)c4ncnc(N)c34)cc2s1 [Compound 171] | < 100
100 to 1000 | < 100 | 100 to 1000 | 100 to 1000 | CC(=O)Nc1nc2ccc(-c3nn(Cc4cc5ccccc5nc4CCN4CCN(C)CC4)c4ncnc(N)c34)cc2s1 [Compound 169] | < 100
< 100 | < 100 | < 100 | > 1000 | Nc1nc2ccc(-c3nn(Cc4cc5ccccc5nc4N4CCCC4)c4ncnc(N)c34)cc2s1 [Compound 79] | < 100
100 to 1000 | < 100 | 100 to 1000 | > 1000 | CC(=O)Nc1nc2ccc(-c3nn(Cc4cc5ccccc5nc4CCN4CCCC4)c4ncnc(N)c34)cc2s1 [Compound 166] | < 100
< 100 | < 100 | < 100 | < 100 | CN1CCN(c2nc3ccccc3cc2Cn2nc(-c3ccc4cc(N)sc4c3)c3c(N)ccnc32)CC1 [Compound 80] | < 100
< 100 | < 100 | < 100 | 100 to 1000 | Cc1ccccc1-c1nc2ccccc2cc1Cn1nc(-c2ccc3nc(N)ncc3c2)c2c(N)ncnc21 [Compound 132] | < 100
100 to 1000 | < 100 | < 100 | > 1000 | Nc1ncc2cc(-c3nn(Cc4cc5ccccc5nc4-c4ccccc4)c4ncnc(N)c34)ccc2n1 [Compound 143] | < 100
100 to 1000 | < 100 | < 100 | > 1000 | CC(C)Oc1nc2ccccc2cc1Cn1nc(-c2ccc3nc(N)sc3c2)c2c(N)ncnc21 [Compound 159] | > 1000
100 to 1000 | < 100 | 100 to 1000 | < 100 | CC(=O)Nc1nc2ccc(-c3nn(Cc4cc5ccccc5nc4N4CCN(C)CC4)c4ncnc(N)c34)cc2s1 [Compound 70] | < 100
100 to 1000 | < 100 | < 100 | 100 to 1000 | Nc1ncnc2c1c(-c1cc(O)cc(F)c1)nn2Cc1cc2ccccc2nc1-c1ccccc1 [Compound 57] | < 100
